“Also recorded” adds a separate entry of the source. Where two headings read alike, the source gives them in different places. Where a SMILES comes first, the peptide text is derived from it. [ ]: non-standard residue; d: D form.
What was measured:
[1] = Dog microsomal stability; format: in vitro ADME; conditions: dog microsomes
[2] = Mouse plasma stability; format: in vitro ADME; conditions: read-out: Mouse Plasma Stability t½
[3] = Mouse (liver) microsomal stability; format: in vitro ADME; conditions: for half-life: mouse, liver microsomes
[4] = system: SOD1^G93A mouse model of ALS; test: 6-week efficacy testing of TVALA in drinking water in the SOD1^G93A mouse model of ALS; format: in vivo
Method: A 6-week efficacy testing of test article, TVALA™, in daily drinking water, in the SOD1^G93A mouse model of ALS, with neurological scoring, neuroinflammation and axonopathy outcome measures was conducted by orally dosing with 3 mg/kg or 10 mg/kg. In phrenic nerves the axons numbers are not affected at this age, however axons start to atrophy, in femoral nerves, the mice lose axons and the remaining ones are atrophied.

[5] = system: ALS patient derived adipose stem cells (ASCs); test: Ionomycin-stressed ALS patient derived adipose stem cells, rescue by test compound (SeaHorse); format: cell-based, human
Method: Adipose stem cells (“ASCs”) derived from fat tissue harvested from an ALS patient were glycolytic showing increased proliferation and lipid accumulation in culture. An in vitro model of mitochondrial dysfunction was initiated with ALS patient derived ASCs grown in growth media. After cells were confluent, the growth media was treated with chemical stressors, such as ionomycin. Ionomycin induces cell death, apoptosis, peroxide formation, extracellular ATP, and peroxynitrites that are related to mitochondrial dysfunction. The media was exchanged and replaced with basic DMEM with 4 mM pyruvate and no additional growth factors. Test compounds were added in an effort to rescue the ionomycin treated cells. After recovery, 6 hours, the cells were measured for viability, apoptosis, peroxides, and peroxynitrites by SeaHorse analysis. The ASC patient derived cells are a good model to investigate dysregulated mitochondrial dysfunction in disease, these effects are not apparent in all ALS patient derived iPSC fibroblast cells (data not shown).

[6] = Pharmacokinetics in mice dosed IV, SC and PO; format: in vivo, mouse; conditions: for half-life / bioavailability / AUC(0-inf) / Cmax: mouse, in vivo, mice
[7] = system: A-375 non-target cells; test: Erastin-induced ferroptotic cell death, viability; format: cell-based; conditions: pre-treatment followed by TVALA treatment; data not shown
Method: (§1) Melanoma cell lines A-375, A-375 non-target, and A-375 (Prdx6 KO) cells were pre-incubated with TVALA™, washed, and treated with Erastin. Following treatment, the cells were evaluated for viability. […] When the cells were pre-treated with TVALA™, washed, and incubated with TVALA™ followed by treatment with Erastin, the cells were protected against Erastin-induced cell death. When A-375 non target cells or A-375 knock out cells were used there was no effect of pre-treatment followed by TVALA™ treatment as expected (data not shown).

[8] = system: A-375 melanoma cells; test: Erastin-induced ferroptotic cell death, viability; format: cell-based; conditions: washed
Method: as §1

[9] = system: A-375 (Prdx6 KO) cells; test: Erastin-induced ferroptotic cell death, viability; format: cell-based; conditions: pre-treatment followed by TVALA treatment; data not shown
Method: as §1

[10] = system: ALS patient-derived ASCs; test: Stressed ALS patient-derived ASCs treated with peptides, SeaHorse analytics (Example 6); format: cell-based, human
From the text: ALS patient-derived ASCs showing hypermetabolism and lipid sequestration were stressed and treated with peptides (shown below, column 2) and effect of the peptide measured with SeaHorse analytics.

[11] = Pharmacokinetics in rat (IV, SC, PO); conditions: in vivo
[12] = Rat microsomal stability; format: in vitro ADME; conditions: rat microsomes
[13] = Pharmacokinetics in dog (PO); conditions: in vivo, read-out: % F (PO)
[14] = In vitro comparisons of Elamipretide triacetate and TVALA; conditions: data not shown
Method: TVALA™ may be steroid sparing in diseases that involve innate immunity and autoimmune components that are traditionally treated with steroids. For example, age-related macular degeneration is treated with steroid anti-inflammatory agents. TVALA™ is used as an adjunct to traditional therapies, decreasing or eliminating the need for steroids. Another example is for renal dialysis patients, for which TVALA™ is used as adjunctive or as a replacement to anti-inflammatory therapies. Elamipretide Triacetate is a small, mitochondrially-targeted d-tetrapeptide that is not entirely different from TVALA™, as both have two basic residues (Arg and Lys) and both have a d-Arg. Elamipretide triacetate appears to reduce the production of the toxic reactive oxygen species and stabilize cardiolipin to moderate mitochondrial disease.

CC(C)[C@@H](NC(=O)[C@H](N)Cc1ccc(O)cc1)C(=O)N[C@H](CC(=O)O)C(=O)N[C@H](CCCCN)C(=O)N[C@H](CCCNC(=N)N)C(=O)O [TVALA™, H-(D-Tyr)-(D-Val)-(D-Asp)-(D-Lys)-(D-Arg)-OH] (H-[dY][dV][dD][dK][dR]-OH)
half-life [1]: > 60 min | half-life [2]: > 120 min | stability in mouse liver microsomes, half-life ([3]; mouse liver microsomes, listed as SEQ ID NO:1): greater than 120 minutes | half-life ([3]; mouse liver microsomes, read-out: stability in mouse liver microsomes, half-life): > 120 min | half-life ([3]; mouse microsomes, read-out: Mouse Microsomal Stability t½): > 60 min | neuroprotection on the phrenic and femoral motor axon sizes ([4]; 3 mg/kg dose): very discrete neuroprotection | effect on the neuroinflammatory marker GFAP (spinal cord) ([4]; 3 mg/kg orally compared with 10 mg/kg orally): more significant effects than 10 mg/kg orally | Femoral motor axon size ([4]; 3 mg/kg orally, SOD1^G93A hemizygous mice, vs vehicle/controls): axons of slightly larger size; also recorded: slightly larger femoral motor axons than vehicle treated mice | Phrenic nerve cross-section area (phrenic axon size) ([4]; 10 mg/kg orally, SOD1^G93A hemizygous mice, vs vehicle/control): smallest axons; also recorded: smaller phrenic axons than vehicle treated mice | brain inflammation ([4]; oral administration, data not shown): not impacted | comparison with TP-5 in ALS patient derived cells [5]: superior to TP-5 | VEGFR2 expression ([5]; ALS patient derived cells): normalizes | peroxides ([5]; ALS-ASC cells in vitro): reduces | dysregulated mitochondrial energy metabolism ([5]; in vitro): rescues | extracellular ATP (eATP) ([5]; in vitro cultured ASCs from an ALS patient): decreased | half-life ([6]; IV, read-out: IV t½, mice): 6.22 min | bioavailability ([6]; PO, read-out: PO % F, mice): 30% | AUC(0-inf) ([6]; PO, read-out: PO AUCinf): 2400 ng·h/mL | Cmax ([6]; PO, read-out: PO Cmax): 5290 ng/mL | half-life ([6]; PO, read-out: PO t½, mice): 7.36 min | bioavailability ([6]; SC, read-out: SC % F, mice): 52% | AUC(0-inf) ([6]; SC, read-out: SC AUCinf): 355 ng·h/mL | Cmax ([6]; SC, read-out: SC Cmax): 674 ng/mL | half-life ([6]; SC, read-out: SC t½, mice): 11.9 min | expected impact of the oral drug on the central nervous system ([6]; oral, based on in vivo testing (Table 4)): 5% | effect on Erastin-induced cell death [7]: no effect | rescue against Erastin-induced cell death (viability) ([8]; pre-incubated with peptide, treated with Erastin): did not rescue | protection against Erastin-induced cell death (viability) ([8]; pre-treated, incubated with peptide, followed by Erastin): protected | effect on Erastin-induced cell death [9]: no effect | effect of the peptide measured with SeaHorse analytics [10]: superior to the other compounds | bioavailability ([11]; PO, read-out: % F (PO)): 6.7% | bioavailability ([11]; SC, read-out: % F (SC)): 79.2% | half-life [12]: > 60 min | bioavailability [13]: 4.9% | immunomodulation compared with Elamipretide triacetate [14]: superior at immunomodulation | target receptors compared with Elamipretide triacetate [14]: more target receptors

Source: patent publication US11975051B1, “Therapeutic peptides and uses thereof” (priority 2022, dated 2024)
